Columns and labels:
Assay in all cases: relative viability (nuclei count vs DMSO), 5 days (fraction); higher = more cells survive
[1] = system: NCI-H1395
How it was run: (§1)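 Values are medians from duplicate plates. Each reflects relative viability, defined as the nuclei count of treated wells over that of vehicle wells. Lung cancer cell lines in 1536-well plates were pin-tool dosed one day after seeding with one drug alone or with a fixed anchor-drug dose plus five library-drug doses (not always all listed) in √10 steps, then fixed, stained and imaged at 4× after 5 days.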

[2] = system: EMC-BAC-2
How it was run: as §1

[3] = system: H3255
How it was run: as §1

[4] = system: NCI-H2126
How it was run: as §1

[5] = system: NCI-H2087
How it was run: as §1

[6] = system: HOP-62
How it was run: as §1

[7] = system: LOU-NH91
How it was run: as §1

[8] = system: 201T
How it was run: as §1

[9] = system: SW 900
How it was run: as §1

[10] = system: BEN
How it was run: as §1

[11] = system: NCI-H2170
How it was run: as §1

[12] = system: HCC-78
How it was run: as §1

[13] = system: LXF-289
How it was run: as §1

[14] = system: HARA
How it was run: as §1

[15] = system: RERF-LC-KJ
How it was run: as §1

[16] = system: LC-2-ad
How it was run: as §1

[17] = system: NCI-H650
How it was run: as §1

[18] = system: LU99A
How it was run: as §1

[19] = system: NCI-H1993
How it was run: as §1

SMILES: Cc1csc(=NC2CCCCC2)n1/N=C/c1ccc(O)c(O)c1O [MIM1] + NC(=O)Nc1cc(-c2cccc(F)c2)sc1C(=O)N[C@H]1CCCNC1 [AZD7762] (partner 0.2 µM)
- relative viability ([1]; first compound 0.2 µM): 0.416
- relative viability ([1]; first compound 0.6325 µM): 0.409
- relative viability ([1]; first compound 2 µM): 0.338
- relative viability ([1]; first compound 6.325 µM): 0.387
- relative viability ([1]; first compound 20 µM): 0.337
- relative viability ([2]; first compound 0.2 µM): 1.12
- relative viability ([2]; first compound 0.6325 µM): 0.776
- relative viability ([2]; first compound 2 µM): 1.09
- relative viability ([2]; first compound 6.325 µM): 0.999
- relative viability ([2]; first compound 20 µM): 0.314
- relative viability ([3]; first compound 0.2 µM): 0.863
- relative viability ([3]; first compound 0.6325 µM): 0.85
- relative viability ([3]; first compound 2 µM): 0.783
- relative viability ([3]; first compound 6.325 µM): 0.571
- relative viability ([3]; first compound 20 µM): 0.371
- relative viability ([4]; first compound 0.2 µM): 0.934
- relative viability ([4]; first compound 0.6325 µM): 0.985
- relative viability ([4]; first compound 2 µM): 1.07
- relative viability ([4]; first compound 6.325 µM): 0.913
- relative viability ([4]; first compound 20 µM): 0.786
- relative viability ([5]; first compound 0.2 µM): 1.31
- relative viability ([5]; first compound 0.6325 µM): 1.29
- relative viability ([5]; first compound 2 µM): 1.45
- relative viability ([5]; first compound 6.325 µM): 0.87
- relative viability ([5]; first compound 20 µM): 1.05
- relative viability ([6]; first compound 0.2 µM): 0.557
- relative viability ([6]; first compound 0.6325 µM): 0.662
- relative viability ([6]; first compound 2 µM): 0.756
- relative viability ([6]; first compound 6.325 µM): 0.506
- relative viability ([6]; first compound 20 µM): 0.0832
- relative viability ([7]; first compound 0.2 µM): 0.731
- relative viability ([7]; first compound 0.6325 µM): 0.779
- relative viability ([7]; first compound 2 µM): 0.677
- relative viability ([7]; first compound 6.325 µM): 0.637
- relative viability ([7]; first compound 20 µM): 0.279
- relative viability ([8]; first compound 0.2 µM): 0.62
- relative viability ([8]; first compound 0.6325 µM): 0.691
- relative viability ([8]; first compound 2 µM): 0.588
- relative viability ([8]; first compound 6.325 µM): 0.453
- relative viability ([8]; first compound 20 µM): 0.305
- relative viability ([9]; first compound 0.2 µM): 0.669
- relative viability ([9]; first compound 0.6325 µM): 0.615
- relative viability ([9]; first compound 2 µM): 0.592
- relative viability ([9]; first compound 6.325 µM): 0.296
- relative viability ([9]; first compound 20 µM): 0.19
- relative viability ([10]; first compound 0.2 µM): 0.781
- relative viability ([10]; first compound 0.6325 µM): 0.645
- relative viability ([10]; first compound 2 µM): 0.67
- relative viability ([10]; first compound 6.325 µM): 0.707
- relative viability ([10]; first compound 20 µM): 0.336
- relative viability ([11]; first compound 0.2 µM): 0.857
- relative viability ([11]; first compound 0.6325 µM): 0.826
- relative viability ([11]; first compound 2 µM): 0.759
- relative viability ([11]; first compound 6.325 µM): 0.368
- relative viability ([11]; first compound 20 µM): 0.158
- relative viability ([12]; first compound 0.2 µM): 0.548
- relative viability ([12]; first compound 2 µM): 0.611
- relative viability ([12]; first compound 6.325 µM): 0.507
- relative viability ([12]; first compound 20 µM): 0.662
- relative viability ([13]; first compound 0.2 µM): 1.07
- relative viability ([13]; first compound 0.6325 µM): 0.905
- relative viability ([13]; first compound 2 µM): 1.12
- relative viability ([13]; first compound 6.325 µM): 0.85
- relative viability ([13]; first compound 20 µM): 0.378
- relative viability ([14]; first compound 0.2 µM): 0.345
- relative viability ([14]; first compound 0.6325 µM): 0.412
- relative viability ([14]; first compound 2 µM): 0.189
- relative viability ([14]; first compound 6.325 µM): 0.219
- relative viability ([14]; first compound 20 µM): 0.148
- relative viability ([15]; first compound 0.2 µM): 0.957
- relative viability ([15]; first compound 0.6325 µM): 0.917
- relative viability ([15]; first compound 2 µM): 0.818
- relative viability ([15]; first compound 6.325 µM): 0.687
- relative viability ([15]; first compound 20 µM): 0.17
- relative viability ([16]; first compound 0.2 µM): 0.804
- relative viability ([16]; first compound 0.6325 µM): 0.706
- relative viability ([16]; first compound 2 µM): 0.9
- relative viability ([16]; first compound 6.325 µM): 0.389
- relative viability ([16]; first compound 20 µM): 0.234
- relative viability ([17]; first compound 0.2 µM): 1.05
- relative viability ([17]; first compound 0.6325 µM): 1.03
- relative viability ([17]; first compound 2 µM): 0.866
- relative viability ([17]; first compound 6.325 µM): 0.975
- relative viability ([17]; first compound 20 µM): 0.271
- relative viability ([18]; first compound 0.2 µM): 0.364
- relative viability ([18]; first compound 0.6325 µM): 0.265
- relative viability ([18]; first compound 2 µM): 0.258
- relative viability ([18]; first compound 6.325 µM): 0.218
- relative viability ([18]; first compound 20 µM): 0.0782
- relative viability ([19]; first compound 0.2 µM): 0.704
- relative viability ([19]; first compound 0.6325 µM): 0.761
- relative viability ([19]; first compound 2 µM): 0.73
- relative viability ([19]; first compound 6.325 µM): 0.569
- relative viability ([19]; first compound 20 µM): 0.35

— the supplement of paper PMC10307832
